Tests used:
Assay type in all cases: biochemical
[1] = biological target: T1, human 20S proteasome (hCP), ChT-L activity; test: ChT-L peptidase activity of isolated hCP (Suc-LLVY-AMC fluorogenic substrate); details: hCP 2 nM, 1 h preincubation with ions, Tris 25 mM pH 7.6, 37 °C, no SDS; read-out: IC50 ChT-L
T1 construct: purchased Boston Biochem (Cambridge, MA, USA)
Text: (§1) Purified human 20S proteasome (hCP) and the fluorogenic substrates Suc-LLVY-AMC, Z-Leu-Leu-Glu-AMC, and Ac-Arg-Leu-Arg-AMC used to assay the ChT-L, T-L, and C-L activity, were from Boston Biochem (Cambridge, MA, USA). Bathocuproinedisulfonic acid disodium salt (BCS), dithiothreitol (DTT), N-Acetyl-L-Cysteine (NAC), Sodium dodecylsulphate (SDS) as well as CuCl2 and Zn(NO3)2 were from Sigma-Aldrich (St. Louis, MO). Proteasome inhibitors Epoxomicin were obtained from Enzo Life Science. Wild type 20S proteasome isolated from Saccharomices Cerevisiae (yCP) and a mutant (α3ΔN) where nine residues of the N-terminal tail of the α3 subunit are deleted to provide a permanently open-gate conformations were isolated as described elsewhere.
(§2) Peptidase activities of hCP (2 nM) were assayed on in 50 μL Tris 25 mM pH 7.6, at 37 °C with 100 μM of the fluorogenic substrate. hCP was incubated with Cu(II)/Zn(II) ions for 1 h prior activity assays. The fluorescence signal activated by peptide cleavage was recorded at 440 nm (excitation at 360 nm) for 45 min, by a Varioskan (Thermo^©) plate reader in 384 multiwell plates. Three replicates were performed for each data point. Data were reported as normalized percentages of residual activity. The potency (IC50) was calculated from the value of the dose response plot corresponding at a fractional activity of 50%. The IC50 values were determined using a non linear fit of experimental data in according to equation: […]
(§3) The midpoint of this function occurs at a fractional activity value of 50%, corresponding to half inhibition of the target enzyme. The IC50 values and their standard errors were deduced from the fitting. To evaluate if copper is a reversible PI, we measured the ChT-L activity of hCP incubated with Cu(II) (2.20 μM) before and after addition of an equimolar amount of EDTA.

[2] = biological target: T2, human 20S proteasome (hCP), C-L activity; test: C-L peptidase activity of isolated hCP (fluorogenic substrate); details: hCP 2 nM, 1 h preincubation with ions, Tris 25 mM pH 7.6, 37 °C, no SDS; read-out: IC50 C-L
T2 construct: purchased Boston Biochem (Cambridge, MA, USA)
Text: as §1, §2, §3

[3] = biological target: T3, human 20S proteasome (hCP); test: Peptidase activities of isolated hCP, all three (ChT-L, T-L, C-L); details: T-L and C-L of hCP, no SDS, read-out: IC50 values, range over the three peptidase activities
T3 construct: purchased Boston Biochem (Cambridge, MA, USA)
Text: as §1
as §2, with “The potency (IC50) was calculated from the value of the dose response plot corresponding at a fractional activity of 50%.” left out

[4] = biological target: T4, human 20S proteasome (hCP), T-L activity; test: T-L peptidase activity of isolated hCP (fluorogenic substrate); details: hCP 2 nM, 1 h preincubation with ions, Tris 25 mM pH 7.6, 37 °C, no SDS; read-out: IC50 T-L
T4 construct: purchased Boston Biochem (Cambridge, MA, USA)
Text: as §1, §2, §3

O=[N+]([O-])[O-].O=[N+]([O-])[O-].[Zn+2] [Zn(II), Zn(NO3)2, reference compound]
IC50 [1]: 5.99 µM
IC50 [2]: 5.84 µM
IC50 [3]: 4.16 to 5.99 µM
IC50 [4]: 4.16 µM

Source: PMC5025780, “Copper(II) ions affect the gating dynamics of the 20S proteasome: a molecular and in cell study” (Scientific Reports, 2016)
